# Source: ChEMBL document CHEMBL1159132, “A small library of peptidomimetics to systematically vary and test the effects of X1 constraints” (Bioorg Med Chem Lett, 1996)
# Several values for one entry are separate records, joined by “and”; a condition that tells them apart may be missing. Equal values may be shown once.
# Experiment: Inhibition of radiolabeled neuropeptide FF binding to neuropeptide FF receptors in rat spinal cord
# Design: concentration or dose not given beside the values
# Settings: concentration not given here
row,Compound,inhibition
1,CC(C)C[C@H](NC(=O)[C@H](Cc1ccccc1)NC(=O)CNC(=O)[C@H](C)NC(=O)[C@@H](N)Cc1ccc(O)cc1)C(=O)N[C@@H](CCCN=C(N)N)C(=O)N[C@@H](Cc1ccccc1)C(N)=O,60% and 76%
2,"CC(C)[C@H]1CC1(NC(=O)[C@H](Cc1ccccc1)NC(=O)[C@@H](C)NC(=O)[C@H](C)NC(=O)[C@@H](N)Cc1ccc(O)cc1)C(=O)N[C@@H](CCCN=C(N)N)C(=O)N[C@@H](Cc1ccccc1)C(N)=O (single isomer, unassigned; form 2)",27%
3,"CC(C)[C@H]1CC1(NC(=O)[C@H](Cc1ccccc1)NC(=O)CNC(=O)CNC(=O)[C@@H](N)Cc1ccc(O)cc1)C(=O)N[C@@H](CCCN=C(N)N)C(=O)N[C@@H](Cc1ccccc1)C(N)=O (single isomer, unassigned)",57%
4,"CC(C)[C@H]1CC1(NC(=O)[C@H](Cc1ccccc1)NC(=O)[C@@H](C)NC(=O)[C@H](C)NC(=O)[C@@H](N)Cc1ccc(O)cc1)C(=O)N[C@@H](CCCN=C(N)N)C(=O)N[C@@H](Cc1ccccc1)C(N)=O (single isomer, unassigned; form 1)",32%
5,CC(C)C[C@H](NC(=O)[C@H](Cc1ccccc1)NC(=O)CNC(=O)CNC(=O)[C@@H](N)Cc1ccc(O)cc1)C(=O)N[C@@H](CCCN=C(N)N)C(=O)N[C@@H](Cc1ccccc1)C(N)=O,98% and 84%
6,CC(C)[C@@H]1C[C@]1(NC(=O)[C@H](Cc1ccccc1)NC(=O)[C@@H](C)NC(=O)[C@H](C)NC(=O)[C@@H](N)Cc1ccc(O)cc1)C(=O)N[C@@H](CCCN=C(N)N)C(=O)N[C@@H](Cc1ccccc1)C(N)=O,30% [middle of 4 runs]
7,"CC(C)[C@H]1CC1(NC(=O)[C@H](Cc1ccccc1)NC(=O)[C@@H](C)NC(=O)CNC(=O)[C@@H](N)Cc1ccc(O)cc1)C(=O)N[C@@H](CCCN=C(N)N)C(=O)N[C@@H](Cc1ccccc1)C(N)=O (single isomer, unassigned)",27%
8,CC(C)C[C@@H](NC(=O)[C@H](Cc1ccccc1)NC(=O)[C@@H](C)NC(=O)CNC(=O)[C@@H](N)Cc1ccc(O)cc1)C(=O)N[C@@H](CCCN=C(N)N)C(=O)N[C@@H](Cc1ccccc1)C(N)=O,28% and 48%
9,CC(C)C[C@H](NC(=O)[C@H](Cc1ccccc1)NC(=O)[C@@H](C)NC(=O)[C@H](C)NC(=O)[C@@H](N)Cc1ccc(O)cc1)C(=O)N[C@@H](CCCN=C(N)N)C(=O)N[C@@H](Cc1ccccc1)C(N)=O,58% and 65%
10,CC(C)C[C@@H](NC(=O)[C@H](Cc1ccccc1)NC(=O)CNC(=O)CNC(=O)[C@@H](N)Cc1ccc(O)cc1)C(=O)N[C@@H](CCCN=C(N)N)C(=O)N[C@@H](Cc1ccccc1)C(N)=O,48% and 31%
11,CC(C)C[C@H](NC(=O)[C@H](Cc1ccccc1)NC(=O)[C@@H](C)NC(=O)CNC(=O)[C@@H](N)Cc1ccc(O)cc1)C(=O)N[C@@H](CCCN=C(N)N)C(=O)N[C@@H](Cc1ccccc1)C(N)=O,81% and 75%
12,CC(C)[C@H]1C[C@@]1(NC(=O)[C@H](Cc1ccccc1)NC(=O)[C@@H](C)NC(=O)CNC(=O)[C@@H](N)Cc1ccc(O)cc1)C(=O)N[C@@H](CCCN=C(N)N)C(=O)N[C@@H](Cc1ccccc1)C(N)=O,22% and 34% and 43%
13,CC(C)[C@H]1C[C@@]1(NC(=O)[C@H](Cc1ccccc1)NC(=O)[C@@H](C)NC(=O)[C@H](C)NC(=O)[C@@H](N)Cc1ccc(O)cc1)C(=O)N[C@@H](CCCN=C(N)N)C(=O)N[C@@H](Cc1ccccc1)C(N)=O,32% and 35%
14,CC(C)[C@@H]1C[C@]1(NC(=O)[C@H](Cc1ccccc1)NC(=O)[C@@H](C)NC(=O)CNC(=O)[C@@H](N)Cc1ccc(O)cc1)C(=O)N[C@@H](CCCN=C(N)N)C(=O)N[C@@H](Cc1ccccc1)C(N)=O,29% [middle of 4 runs]
15,CC(C)C[C@@H](NC(=O)[C@H](Cc1ccccc1)NC(=O)CNC(=O)[C@H](C)NC(=O)[C@@H](N)Cc1ccc(O)cc1)C(=O)N[C@@H](CCCN=C(N)N)C(=O)N[C@@H](Cc1ccccc1)C(N)=O,35% and 40%
16,CC(C)C[C@@H](NC(=O)[C@H](Cc1ccccc1)NC(=O)[C@@H](C)NC(=O)[C@H](C)NC(=O)[C@@H](N)Cc1ccc(O)cc1)C(=O)N[C@@H](CCCN=C(N)N)C(=O)N[C@@H](Cc1ccccc1)C(N)=O,69% and 63%
